“Also recorded” adds a separate entry of the source.
Tested on: SN12C-VHLshRNA-HIF-1α mutant and SN12C-VHLshRNA-HIF-2α mutant cells
Assay: In vitro growth of VHL knockdown cells expressing prolyl hydroxylation defective HIF mutants
Assay type: cell-based, human
Conditions: 1 or 10 nM CCI-779, 5 days
Description: FIGS. 4A-4C. Rescue of CCI-779 growth suppression by HIF-1-α and HIF-2-α prolyl hydcroxylase mutants. SN12C-CSCG-VHLshRNA cells stably infected with the prolyl hydroxylation defective cDNA mutants p-Babe-puro-HA-HIF-1α (P564A), HIF-2α (P405A; P531A) or backbone vector were treated with CCI-779 or vehicle and harvested 24 hours later. (a) Lysates were subjected to immunoblotting for HIF-1α, HIF-2α, GLUT-1, CA-IX, p-eIF4G, p-S6 and β-Actin as loading control. (b) SN12C-VHLshRNA, SN12C-VHLshRNA-HIF-1α mutant, SN12C-VHLshRNA-HIF-2α mutant cells (1×10^5) were cultured in 10% serum rich media, in the presence of vehicle, 1 or 10 nM of CCI-779 for 5 days. Cell growth was measured by cell counts (n=3). […]
For in vitro experiments, cells (5×10^4) were plated and treated with 1 and 10 nM CCI-779 (kind gift of J. Gibbons, Wyeth) or vehicle (ethanol). On day 5-post treatment, cells were trypsinized, resuspended in DMEM with 10% FBS and counted using the VI CELL counter (Beckman Coulter), according to the manufacturer's instructions. […] In vivo tumorigenicity was measured by injection of 5×10^5 SN12C-CSCG, ACHN-CSCG, SN12C-CSCG-VHLshRNAi, ACHN-CSCG-VHLshRNAi, SN12C-CSCG-VHLshRNAi-pBABE, SN12C-CSCG-VHLshRNAi-pBABE-HA-HIF-2α (P405A; P531A) cells in 100 μl of Matrigel (Collaborative Biomedical) subcutaneously into the flanks of SCID mice. […]

CO[C@H]1C[C@@H]2CC[C@@H](C)[C@@](O)(O2)C(=O)C(=O)N2CCCC[C@H]2C(=O)O[C@H]([C@H](C)C[C@@H]2CC[C@@H](OC(=O)C(C)(CO)CO)[C@H](OC)C2)CC(=O)[C@H](C)/C=C(\C)[C@@H](O)[C@@H](OC)C(=O)[C@H](C)C[C@H](C)/C=C/C=C/C=C/1C [CCI-779]
growth inhibitory effect of CCI-779 in cells expressing HIF mutants, in vitro: completely rescued; also recorded: reversal of both the in vitro and in vivo sensitivity

Source: patent publication US9261498B2, “Biomarker for sensitivity to mTOR inhibitor therapy in kidney cancer” (The Regents of the University of California, priority 2005, dated 2016)
